Results: patent US10000525B2, “Non-hormonal steroid modulators of NF-κB for treatment of disease” (ReveraGen Biopharma, Inc, priority 2010, dated 2018)

Tests used:
mdx mice [1] = assay: In vivo mdx mouse model of dystrophy: body weight and muscle mass; conditions: 5 mg/kg/day per oral in feed, at 33.8 weeks age
Protocol: (§1) Separate groups (n=12-14) of mdx mice were treated with prednisolone (5 mg/kg/day; per oral in feed), Example 1 (20 and 40 mg/kg/day; per oral in feed) and Example 2 (20 and 40 mg/kg/day; per oral in feed) for 3 months. All mice underwent 30 min biweekly treadmill exercise during the treatment duration to unmask the mild disease phenotype of mdx mouse model.

mdx mice [2] = assay: mdx mouse model: histological evaluation (H&E) of gastrocnemius muscle; assay type: in vivo; conditions: for degeneration of skeletal muscle (H&E) / inflammation of skeletal muscle (H&E) / regenerating muscle fibers (H&E): 20 and 40 mg/kg/day per oral in feed, 3 months, in comparison to untreated and prednisolone treated mdx mice
Protocol: as §1
Hematoxylin and Eosin staining of gastrocnemius muscle of untreated mdx mice show significant degeneration and inflammation. […] Continuous administration of prednisolone appeared to increase degeneration and decrease in regeneration of dystrophic skeletal muscle.

[3] = system: extensor digitorum longus (EDL) muscle; assay: mdx mouse model: in vitro force contractions of EDL muscle; assay type: in vivo; conditions: mdx mice, prednisolone 5 mg/kg/day per oral in feed, 3 months
Protocol: as §1
The distal tendon of the extensor digitorum longus (EDL) muscle was tied securely to the lever arm of a servomotor/force transducer (model 305B, Aurora Scientific, Richmond Hill, ON, Canada) and the proximal tendon to a tissue clamp. Muscles were stimulated between two platinum electrodes. […] With the muscle held at Lo using stimulation frequencies of 30, 50, 80, 100, 120 and 150 Hz, the maximum isometric tetanic force (Po) developed during a 300 ms train of stimulation pulses was recorded for the EDL muscle. The muscle length was then measured with calipers and after removal of the muscle from the bath the mass of the muscle was determined. For each muscle, the optimum fiber length (Lf) was calculated by multiplying Lo by a previously determined Lf/Lo ratio of 0.45. […]

[4] = continuous administration, 5 mg/kg/day per oral in feed

Structure (SMILES)	body weight versus untreated mice (mdx mice [1])	degeneration of dystrophic skeletal muscle (H&E) (mdx mice [2]; [4])	regeneration of dystrophic skeletal muscle (H&E) (mdx mice [2]; [4])	specific force of EDL muscle, versus untreated group [3]	degeneration of skeletal muscle (H&E) (mdx mice [2])	inflammation of skeletal muscle (H&E) (mdx mice [2])	regenerating muscle fibers (H&E) (mdx mice [2])
C[C@]12C=CC(=O)C=C1CC[C@@H]1[C@@H]2[C@@H](O)C[C@@]2(C)[C@H]1CC[C@]2(O)C(=O)CO [Prednisolone, reference compound]	significantly lower body weight	increase	decrease	no statistically significant (P<0.05) difference	–	–	–
C[C@]12CCC(=O)C=C1CCC1C2=CC[C@@]2(C)C1CC[C@]2(O)C(=O)CO (stereo partly drawn) [Example 1, (10S,13S,17R)-17-hydroxy-17-(2-hydroxyacetyl)-10,13-dimethyl-6,7,8,10,12,13,14,15,16,17-decahydro-1H-cyclopenta[a]phenanthren-3(2H)-one]	–	–	–	–	significant decrease	significant decrease	increase
C[C@]12C=CC(=O)C=C1CCC1C2=CC[C@@]2(C)C1CC[C@]2(O)C(=O)CO (stereo partly drawn) [Example 2, (10S,13S,17R)-17-hydroxy-17-(2-hydroxyacetyl)-10,13-dimethyl-6,7,8,10,12,13,14,15,16,17-decahydro-3H-cyclopenta[a]phenanthren-3-one]	–	–	–	–	significant decrease	significant decrease	increase
